Data reported in ChEMBL document CHEMBL1136143, “Synthesis and activity of novel benzoxazole derivatives of mannopeptimycin glycopeptide antibiotics” (2003).
≈ marks a conversion by molar mass, not a printed value.

Legend:
Format in all cases: functional
Staphylococcus aureus = test: In vitro minimum inhibitory concentration against Staphylococcus aureus (10strains, including MRSA)
Enterococcus sp. = test: In vitro minimum inhibitory concentration against Enterococcus species (11 strains, including VRE)
Streptococcus = test: In vitro minimum inhibitory concentration against Streptococcus Species (5 strains, including PRSP)

MIC (Staphylococcus aureus) [µg/mL] | MIC (Enterococcus sp.) [µg/mL] | MIC (Streptococcus) [µg/mL] | SMILES
8 (≈ 6.98 µM) | 4 (≈ 3.49 µM) | 8 (≈ 6.98 µM) | C[C@@H](c1ccccc1)[C@@H]1NC(=O)CNC(=O)[C@H](CO)NC(=O)[C@@H]([C@@H](O)[C@@H]2CN=C(N)N2[C@H]2O[C@H](CO)[C@@H](O)[C@H](O)[C@@H]2O)NC(=O)[C@H]([C@H](O)[C@@H]2CN=C(N)N2)NC(=O)[C@@H](Cc2ccc3nc(SCC(=O)c4ccccc4)oc3c2)NC1=O
16 (≈ 14.2 µM) | 8 (≈ 7.09 µM) | 8 (≈ 7.09 µM) | C[C@@H](c1ccccc1)[C@@H]1NC(=O)CNC(=O)[C@H](CO)NC(=O)[C@@H]([C@@H](O)[C@@H]2CN=C(N)N2[C@H]2O[C@H](CO)[C@@H](O)[C@H](O)[C@@H]2O)NC(=O)[C@H]([C@H](O)[C@@H]2CN=C(N)N2)NC(=O)[C@@H](Cc2ccc3nc(-c4cccc(C(C)(C)C)c4)oc3c2)NC1=O
6 (≈ 5.65 µM) | 32 (≈ 30.1 µM) | 32 (≈ 30.1 µM) | C[C@@H](c1ccccc1)[C@@H]1NC(=O)CNC(=O)[C@H](CO)NC(=O)[C@@H]([C@@H](O)[C@@H]2CN=C(N)N2[C@H]2O[C@H](CO)[C@@H](O)[C@H](O)[C@@H]2O)NC(=O)[C@H]([C@H](O)[C@@H]2CN=C(N)N2)NC(=O)[C@@H](Cc2ccc3nc(-c4ccco4)oc3c2)NC1=O
8 (≈ 6.9 µM) | 4 (≈ 3.45 µM) | 4 (≈ 3.45 µM) | C[C@@H](c1ccccc1)[C@@H]1NC(=O)CNC(=O)[C@H](CO)NC(=O)[C@@H]([C@@H](O)[C@@H]2CN=C(N)N2[C@H]2O[C@H](CO)[C@@H](O)[C@H](O)[C@@H]2O)NC(=O)[C@H]([C@H](O)[C@@H]2CN=C(N)N2)NC(=O)[C@@H](Cc2ccc3nc(-c4ccc5c(c4)-c4ccccc4C5)oc3c2)NC1=O
> 128 | 128 (≈ 115 µM) | 128 (≈ 115 µM) | C[C@@H](c1ccccc1)[C@@H]1NC(=O)CNC(=O)[C@H](CO)NC(=O)[C@@H]([C@@H](O)[C@@H]2CN=C(N)N2[C@H]2O[C@H](CO)[C@@H](O)[C@H](O)[C@@H]2O)NC(=O)[C@H]([C@H](O)[C@@H]2CN=C(N)N2)NC(=O)[C@@H](Cc2ccc3nc(-c4ccc(C(=O)O)cc4)oc3c2)NC1=O
8 (≈ 6.95 µM) | 8 (≈ 6.95 µM) | 4 (≈ 3.48 µM) | C[C@@H](c1ccccc1)[C@@H]1NC(=O)CNC(=O)[C@H](CO)NC(=O)[C@@H]([C@@H](O)[C@@H]2CN=C(N)N2[C@H]2O[C@H](CO)[C@@H](O)[C@H](O)[C@@H]2O)NC(=O)[C@H]([C@H](O)[C@@H]2CN=C(N)N2)NC(=O)[C@@H](Cc2ccc3nc(-c4ccc(Br)cc4)oc3c2)NC1=O
8 (≈ 6.81 µM) | 8 (≈ 6.81 µM) | 4 (≈ 3.41 µM) | C[C@@H](c1ccccc1)[C@@H]1NC(=O)CNC(=O)[C@H](CO)NC(=O)[C@@H]([C@@H](O)[C@@H]2CN=C(N)N2[C@H]2O[C@H](CO)[C@@H](O)[C@H](O)[C@@H]2O)NC(=O)[C@H]([C@H](O)[C@@H]2CN=C(N)N2)NC(=O)[C@@H](Cc2ccc3nc(C=C(c4ccccc4)c4ccccc4)oc3c2)NC1=O
> 128 | 128 (≈ 102 µM) | 128 (≈ 102 µM) | C[C@@H](c1ccccc1)[C@@H]1NC(=O)CNC(=O)[C@H](CO)NC(=O)[C@@H]([C@@H](O)[C@@H]2CN=C(N)N2[C@H]2O[C@H](CO)[C@@H](O)[C@H](O)[C@@H]2O)NC(=O)[C@H]([C@H](O)[C@@H]2CN=C(N)N2)NC(=O)[C@@H](Cc2ccc3nc(-c4ccccc4OC4O[C@H](CO)[C@@H](O)[C@H](O)[C@H]4O)oc3c2)NC1=O (stereo partly specified)
8 (≈ 7.42 µM) | 16 (≈ 14.8 µM) | 16 (≈ 14.8 µM) | C[C@@H](c1ccccc1)[C@@H]1NC(=O)CNC(=O)[C@H](CO)NC(=O)[C@@H]([C@@H](O)[C@@H]2CN=C(N)N2[C@H]2O[C@H](CO)[C@@H](O)[C@H](O)[C@@H]2O)NC(=O)[C@H]([C@H](O)[C@@H]2CN=C(N)N2)NC(=O)[C@@H](Cc2ccc3nc(-c4cccs4)oc3c2)NC1=O
8 (≈ 6.79 µM) | 4 (≈ 3.39 µM) | 8 (≈ 6.79 µM) | C[C@@H](c1ccccc1)[C@@H]1NC(=O)CNC(=O)[C@H](CO)NC(=O)[C@@H]([C@@H](O)[C@@H]2CN=C(N)N2[C@H]2O[C@H](CO)[C@@H](O)[C@H](O)[C@@H]2O)NC(=O)[C@H]([C@H](O)[C@@H]2CN=C(N)N2)NC(=O)[C@@H](Cc2ccc3nc(-c4ccc(OCc5ccccc5)cc4)oc3c2)NC1=O
32 (≈ 35.2 µM) | 32 (≈ 35.2 µM) | 32 (≈ 35.2 µM) | C[C@@H](c1ccccc1)[C@@H]1NC(=O)CNC(=O)[C@H](CO)NC(=O)[C@@H]([C@@H](O)[C@@H]2CN=C(N)N2)NC(=O)[C@H]([C@H](O)[C@@H]2CN=C(N)N2)NC(=O)[C@@H](Cc2ccc3nc(-c4ccccc4)oc3c2)NC1=O
4 (≈ 3.58 µM) | 4 (≈ 3.58 µM) | 4 (≈ 3.58 µM) | C[C@@H](c1ccccc1)[C@@H]1NC(=O)CNC(=O)[C@H](CO)NC(=O)[C@@H]([C@@H](O)[C@@H]2CN=C(N)N2[C@H]2O[C@H](CO)[C@@H](O)[C@H](O)[C@@H]2O)NC(=O)[C@H]([C@H](O)[C@@H]2CN=C(N)N2)NC(=O)[C@@H](Cc2ccc3nc(SCc4ccccc4)oc3c2)NC1=O
4 (≈ 3.48 µM) | 4 (≈ 3.48 µM) | 16 (≈ 13.9 µM) | C[C@@H](c1ccccc1)[C@@H]1NC(=O)CNC(=O)[C@H](CO)NC(=O)[C@@H]([C@@H](O)[C@@H]2CN=C(N)N2[C@H]2O[C@H](CO)[C@@H](O)[C@H](O)[C@@H]2O)NC(=O)[C@H]([C@H](O)[C@@H]2CN=C(N)N2)NC(=O)[C@@H](Cc2ccc3nc(-c4ccc(-c5ccccc5)cc4)oc3c2)NC1=O
32 (≈ 20.1 µM) | 4 (≈ 2.52 µM) | 4 (≈ 2.52 µM) | C[C@@H](c1ccccc1)[C@@H]1NC(=O)CNC(=O)[C@H](CO)NC(=O)[C@@H]([C@@H](O)[C@@H]2CN=C(N)N2[C@H]2O[C@H](CO)[C@@H](O)[C@H](O)[C@@H]2O)NC(=O)[C@H]([C@H](O)[C@@H]2CN=C(N)N2)NC(=O)[C@@H](Cc2ccc3nc(NC4O[C@@H](OC(=O)c5ccccc5)[C@H](OC(=O)c5ccccc5)[C@@H](OC(=O)c5ccccc5)[C@@H]4COC(=O)c4ccccc4)oc3c2)NC1=O (stereo partly specified)
2 (≈ 1.77 µM) | 2 (≈ 1.77 µM) | 8 (≈ 7.09 µM) | C[C@@H](c1ccccc1)[C@@H]1NC(=O)CNC(=O)[C@H](CO)NC(=O)[C@@H]([C@@H](O)[C@@H]2CN=C(N)N2[C@H]2O[C@H](CO)[C@@H](O)[C@H](O)[C@@H]2O)NC(=O)[C@H]([C@H](O)[C@@H]2CN=C(N)N2)NC(=O)[C@@H](Cc2ccc3nc(-c4ccc(C(C)(C)C)cc4)oc3c2)NC1=O
8 (≈ 6.7 µM) | 2 (≈ 1.67 µM) | 2 (≈ 1.67 µM) | C[C@@H](c1ccccc1)[C@@H]1NC(=O)CNC(=O)[C@H](CO)NC(=O)[C@@H]([C@@H](O)[C@@H]2CN=C(N)N2[C@H]2O[C@H](CO)[C@@H](O)[C@H](O)[C@@H]2O)NC(=O)[C@H]([C@H](O)[C@@H]2CN=C(N)N2)NC(=O)[C@@H](Cc2ccc3nc(SCc4ccc(-c5ccccc5)cc4)oc3c2)NC1=O
32 (≈ 30.5 µM) | 16 (≈ 15.2 µM) | 32 (≈ 30.5 µM) | CC(C)=Cc1nc2ccc(C[C@H]3NC(=O)[C@H]([C@@H](C)c4ccccc4)NC(=O)CNC(=O)[C@H](CO)NC(=O)[C@@H]([C@@H](O)[C@@H]4CN=C(N)N4[C@H]4O[C@H](CO)[C@@H](O)[C@H](O)[C@@H]4O)NC(=O)[C@H]([C@H](O)[C@@H]4CN=C(N)N4)NC3=O)cc2o1
8 (≈ 6.88 µM) | 8 (≈ 6.88 µM) | 8 (≈ 6.88 µM) | COc1cc(-c2nc3ccc(C[C@H]4NC(=O)[C@H]([C@@H](C)c5ccccc5)NC(=O)CNC(=O)[C@H](CO)NC(=O)[C@@H]([C@@H](O)[C@@H]5CN=C(N)N5[C@H]5O[C@H](CO)[C@@H](O)[C@H](O)[C@@H]5O)NC(=O)[C@H]([C@H](O)[C@@H]5CN=C(N)N5)NC4=O)cc3o2)cc(OC)c1OC

SMILES | MIC (Staphylococcus aureus) [µg/mL] | MIC (Enterococcus sp.) [µg/mL] | MIC (Streptococcus) [µg/mL]
CN[C@H](CC(C)C)C(=O)N[C@H]1C(=O)N[C@@H](CC(N)=O)C(=O)N[C@H]2C(=O)N[C@H]3C(=O)N[C@H](C(=O)N[C@H](C(=O)O)c4cc(O)cc(O)c4-c4cc3ccc4O)[C@H](O)c3ccc(c(Cl)c3)Oc3cc2cc(c3O[C@@H]2O[C@H](CO)[C@@H](O)[C@H](O)[C@H]2O[C@H]2C[C@](C)(N)[C@H](O)[C@H](C)O2)Oc2ccc(cc2Cl)[C@H]1O [VANCOMYCIN] | – | 5 (≈ 3.45 µM) | 0.25 (≈ 0.173 µM)
